Assay results: ChEMBL document CHEMBL2434905, “2-Amino-6-chloro-3,4-dihydroquinazoline: A novel 5-HT3 receptor antagonist with antidepressant character” (Bioorg Med Chem Lett, 2013)

Assays:
[1] = molecular target: 5-hydroxytryptamine receptor 1B (Homo sapiens, UniProt P28222); assay: Displacement of [3H]5-CT from human recombinant 5-HT1B receptor expressed in HEK cells after 90 mins by scintillation counting analysis; assay type: cell-based, HEK293
[2] = molecular target: 5-hydroxytryptamine receptor 2A (Homo sapiens, UniProt P28223); assay: Displacement of [3H]Ketanserin from human recombinant 5-HT2A receptor expressed in HEK cells after 90 mins by scintillation counting analysis; assay type: cell-based, HEK293
Sequence of 5-hydroxytryptamine receptor 2A (P28223 whole entry): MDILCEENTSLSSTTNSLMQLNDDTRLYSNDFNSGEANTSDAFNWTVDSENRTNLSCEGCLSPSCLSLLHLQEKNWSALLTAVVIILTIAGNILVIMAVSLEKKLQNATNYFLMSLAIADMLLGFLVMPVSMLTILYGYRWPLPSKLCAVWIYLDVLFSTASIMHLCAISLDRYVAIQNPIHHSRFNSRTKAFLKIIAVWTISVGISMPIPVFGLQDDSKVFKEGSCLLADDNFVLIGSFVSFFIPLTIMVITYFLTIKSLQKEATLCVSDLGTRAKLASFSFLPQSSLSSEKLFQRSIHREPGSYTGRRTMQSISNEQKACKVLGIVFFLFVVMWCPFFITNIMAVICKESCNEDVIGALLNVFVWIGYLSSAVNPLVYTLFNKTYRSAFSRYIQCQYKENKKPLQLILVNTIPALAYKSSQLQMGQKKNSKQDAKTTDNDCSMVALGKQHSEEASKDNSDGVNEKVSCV

[3] = Lipophilicity, log P of the compound by HPLC analysis; assay type: physicochemical
D(1B) dopamine receptor = D(1B) dopamine receptor (Homo sapiens, UniProt P21918); assay: Displacement of [3H]SCH23390 from human recombinant dopamine D5 receptor expressed in HEK cells after 90 mins by scintillation counting analysis; assay type: cell-based, HEK293
[4] = molecular target: Alpha-1D adrenergic receptor (Homo sapiens, UniProt P25100); assay: Displacement of [3H]Prazosin from human recombinant alpha1D-adrenoceptor after 90 mins by scintillation counting analysis
Sequence of Alpha-1D adrenergic receptor (P25100 whole entry): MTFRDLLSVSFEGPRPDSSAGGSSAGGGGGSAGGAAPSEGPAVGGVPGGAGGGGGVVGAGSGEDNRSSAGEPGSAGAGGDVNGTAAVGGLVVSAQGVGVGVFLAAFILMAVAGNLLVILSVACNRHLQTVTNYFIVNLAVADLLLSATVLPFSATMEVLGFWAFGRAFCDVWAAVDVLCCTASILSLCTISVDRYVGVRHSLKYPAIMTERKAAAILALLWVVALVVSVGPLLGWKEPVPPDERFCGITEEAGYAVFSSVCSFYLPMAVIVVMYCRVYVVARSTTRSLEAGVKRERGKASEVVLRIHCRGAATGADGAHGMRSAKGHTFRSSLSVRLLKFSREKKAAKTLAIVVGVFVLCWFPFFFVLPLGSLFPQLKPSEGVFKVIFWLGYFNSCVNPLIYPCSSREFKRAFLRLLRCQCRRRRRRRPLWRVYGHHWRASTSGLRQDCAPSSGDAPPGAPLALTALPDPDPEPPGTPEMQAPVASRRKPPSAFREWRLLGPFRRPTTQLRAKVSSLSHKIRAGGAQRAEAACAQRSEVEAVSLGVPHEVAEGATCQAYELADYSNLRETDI

Mus musculus [5] = assay: Antidepressant activity in ip dosed ICR mouse assessed as immobility time by tail suspension test; assay type: functional
[6] = molecular target: Muscarinic acetylcholine receptor M1 (Homo sapiens, UniProt P11229); assay: Binding affinity to human recombinant muscarinic M1 receptor expressed in CHO cells after 90 mins by radioligand displacement assay; assay type: cell-based
Sequence of Muscarinic acetylcholine receptor M1 (P11229 whole entry): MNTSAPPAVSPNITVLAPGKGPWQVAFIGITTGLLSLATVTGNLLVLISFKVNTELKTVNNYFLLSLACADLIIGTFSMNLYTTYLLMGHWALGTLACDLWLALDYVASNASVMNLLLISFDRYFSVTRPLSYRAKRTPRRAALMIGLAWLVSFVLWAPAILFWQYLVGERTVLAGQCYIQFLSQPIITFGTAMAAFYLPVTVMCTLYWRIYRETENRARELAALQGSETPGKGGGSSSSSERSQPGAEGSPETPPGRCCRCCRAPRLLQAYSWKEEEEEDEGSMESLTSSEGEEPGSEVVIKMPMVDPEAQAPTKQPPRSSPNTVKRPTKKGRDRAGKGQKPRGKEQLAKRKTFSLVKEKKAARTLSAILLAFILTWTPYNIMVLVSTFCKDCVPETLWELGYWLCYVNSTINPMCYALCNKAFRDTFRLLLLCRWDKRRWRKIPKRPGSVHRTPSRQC

[7] = Displacement of [3H]Flunitrazepam from BZP receptor in rat brain after 90 mins by scintillation counting analysis; assay type: tissue-based
[8] = molecular target: T1, 5-hydroxytryptamine receptor 3A (Mus musculus, UniProt P23979); assay: Displacement of [3H]LY278584 from mouse 5-HT3A receptor
T1 sequence (P23979 whole entry): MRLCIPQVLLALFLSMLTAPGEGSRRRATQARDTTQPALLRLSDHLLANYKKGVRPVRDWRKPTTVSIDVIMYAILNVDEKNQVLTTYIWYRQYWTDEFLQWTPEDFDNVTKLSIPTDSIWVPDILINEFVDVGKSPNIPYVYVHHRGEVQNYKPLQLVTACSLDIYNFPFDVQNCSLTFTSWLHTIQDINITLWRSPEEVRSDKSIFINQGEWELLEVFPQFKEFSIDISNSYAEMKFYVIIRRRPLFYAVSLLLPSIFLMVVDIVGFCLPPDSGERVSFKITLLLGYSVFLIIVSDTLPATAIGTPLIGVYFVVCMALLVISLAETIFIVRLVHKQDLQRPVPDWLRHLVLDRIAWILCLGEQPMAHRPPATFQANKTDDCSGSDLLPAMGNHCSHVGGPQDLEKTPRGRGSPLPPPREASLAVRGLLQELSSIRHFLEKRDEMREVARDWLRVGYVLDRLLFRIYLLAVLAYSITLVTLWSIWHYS

[9] = molecular target: Sodium-dependent dopamine transporter (Homo sapiens, UniProt Q01959); assay: Displacement of [3H]WIN35428 from human recombinant sodium-dependent dopamine transporter expressed in HEK cells after 90 mins by scintillation counting analysis; assay type: cell-based, HEK293
Sequence of Sodium-dependent dopamine transporter (Q01959 whole entry): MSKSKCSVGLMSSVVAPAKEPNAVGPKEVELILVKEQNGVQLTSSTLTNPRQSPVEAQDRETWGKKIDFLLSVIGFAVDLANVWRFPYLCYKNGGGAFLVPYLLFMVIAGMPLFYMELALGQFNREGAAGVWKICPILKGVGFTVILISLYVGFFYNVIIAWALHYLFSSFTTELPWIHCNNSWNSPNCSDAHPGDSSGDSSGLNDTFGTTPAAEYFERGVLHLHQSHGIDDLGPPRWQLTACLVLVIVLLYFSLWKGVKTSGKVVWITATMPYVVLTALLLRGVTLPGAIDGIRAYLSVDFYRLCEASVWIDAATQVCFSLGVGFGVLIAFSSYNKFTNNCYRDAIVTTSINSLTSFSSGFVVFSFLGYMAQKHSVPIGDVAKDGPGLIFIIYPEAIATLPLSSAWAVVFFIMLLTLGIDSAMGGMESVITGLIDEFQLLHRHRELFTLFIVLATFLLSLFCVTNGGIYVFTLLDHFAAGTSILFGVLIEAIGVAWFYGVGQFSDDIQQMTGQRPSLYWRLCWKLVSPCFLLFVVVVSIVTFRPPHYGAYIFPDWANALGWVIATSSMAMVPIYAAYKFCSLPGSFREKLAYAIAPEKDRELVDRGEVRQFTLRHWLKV

D(1A) dopamine receptor = D(1A) dopamine receptor (Homo sapiens, UniProt P21728); assay: Displacement of [3H]SCH23390 from human recombinant dopamine D1 receptor expressed in HEK cells after 90 mins by scintillation counting analysis; assay type: cell-based, HEK293
[10] = molecular target: Beta-1 adrenergic receptor (Homo sapiens, UniProt P08588); assay: Binding affinity to human recombinant beta1-adrenoceptor expressed in CHO cells after 90 mins by radioligand displacement assay; assay type: cell-based
[11] = molecular target: Alpha-1A adrenergic receptor (Homo sapiens, UniProt P35348); assay: Displacement of [3H]Prazosin from human recombinant alpha1A-adrenoceptor after 90 mins by scintillation counting analysis
D(2) dopamine receptor = D(2) dopamine receptor (Homo sapiens, UniProt P14416); assay: Displacement of [[3H]N-methylspiperone from human recombinant dopamine D2 receptor expressed in human fibroblasts after 90 mins by scintillation counting analysis
[12] = molecular target: Neuronal acetylcholine receptor; alpha4/beta2 (Homo sapiens, UniProt P17787+P43681); assay: Displacement of [3H]-epibatidine from human alpha4beta2 nAChR transfected in HEK293 cells by scintillation counting analysis; assay type: cell-based
Sequence of Neuronal acetylcholine receptor; alpha4/beta2 (P17787 whole entry): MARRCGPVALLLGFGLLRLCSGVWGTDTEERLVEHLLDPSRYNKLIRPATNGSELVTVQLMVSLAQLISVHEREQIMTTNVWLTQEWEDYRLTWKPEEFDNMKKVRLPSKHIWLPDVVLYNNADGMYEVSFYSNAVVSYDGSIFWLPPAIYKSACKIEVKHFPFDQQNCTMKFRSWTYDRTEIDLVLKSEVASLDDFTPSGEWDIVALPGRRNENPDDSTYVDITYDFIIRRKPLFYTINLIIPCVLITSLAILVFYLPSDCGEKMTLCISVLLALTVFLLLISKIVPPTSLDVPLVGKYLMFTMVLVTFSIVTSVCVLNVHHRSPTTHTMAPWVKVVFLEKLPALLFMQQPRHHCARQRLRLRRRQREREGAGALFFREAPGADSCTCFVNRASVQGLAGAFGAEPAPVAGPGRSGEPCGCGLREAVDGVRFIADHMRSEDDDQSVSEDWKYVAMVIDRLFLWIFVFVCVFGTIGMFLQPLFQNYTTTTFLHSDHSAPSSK
Sequence of Neuronal acetylcholine receptor; alpha4/beta2 (P43681 whole entry): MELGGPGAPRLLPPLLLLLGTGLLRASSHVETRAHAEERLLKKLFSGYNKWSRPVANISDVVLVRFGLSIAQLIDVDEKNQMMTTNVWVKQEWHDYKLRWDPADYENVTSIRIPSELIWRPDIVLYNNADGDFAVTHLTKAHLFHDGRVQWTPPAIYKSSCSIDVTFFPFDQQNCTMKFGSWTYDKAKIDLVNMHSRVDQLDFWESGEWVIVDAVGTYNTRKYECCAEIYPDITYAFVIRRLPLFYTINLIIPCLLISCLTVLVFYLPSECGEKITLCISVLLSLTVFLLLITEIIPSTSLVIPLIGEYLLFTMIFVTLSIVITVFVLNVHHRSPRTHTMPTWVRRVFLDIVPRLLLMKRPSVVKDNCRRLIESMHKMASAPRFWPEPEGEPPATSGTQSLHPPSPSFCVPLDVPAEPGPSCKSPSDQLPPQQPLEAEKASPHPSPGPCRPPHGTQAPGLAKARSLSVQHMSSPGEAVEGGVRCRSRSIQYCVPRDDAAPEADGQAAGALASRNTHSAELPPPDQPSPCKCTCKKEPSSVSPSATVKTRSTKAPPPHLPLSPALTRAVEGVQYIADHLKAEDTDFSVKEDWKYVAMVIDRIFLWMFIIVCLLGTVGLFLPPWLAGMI

[13] = molecular target: 5-hydroxytryptamine receptor 1D (Homo sapiens, UniProt P28221); assay: Displacement of [3H]5-CT from human recombinant 5-HT1D receptor expressed in HEK cells after 90 mins by scintillation counting analysis; assay type: cell-based, HEK293
[14] = molecular target: Neuronal acetylcholine receptor; alpha3/beta2 (Homo sapiens, UniProt P17787+P32297); assay: Displacement of [3H]-epibatidine from human alpha3beta2 nAChR transfected in HEK293 cells by scintillation counting analysis; assay type: cell-based
Sequence of Neuronal acetylcholine receptor; alpha3/beta2 (P17787 whole entry): as the sequence (P17787 whole entry) above
Sequence of Neuronal acetylcholine receptor; alpha3/beta2 (P32297 whole entry): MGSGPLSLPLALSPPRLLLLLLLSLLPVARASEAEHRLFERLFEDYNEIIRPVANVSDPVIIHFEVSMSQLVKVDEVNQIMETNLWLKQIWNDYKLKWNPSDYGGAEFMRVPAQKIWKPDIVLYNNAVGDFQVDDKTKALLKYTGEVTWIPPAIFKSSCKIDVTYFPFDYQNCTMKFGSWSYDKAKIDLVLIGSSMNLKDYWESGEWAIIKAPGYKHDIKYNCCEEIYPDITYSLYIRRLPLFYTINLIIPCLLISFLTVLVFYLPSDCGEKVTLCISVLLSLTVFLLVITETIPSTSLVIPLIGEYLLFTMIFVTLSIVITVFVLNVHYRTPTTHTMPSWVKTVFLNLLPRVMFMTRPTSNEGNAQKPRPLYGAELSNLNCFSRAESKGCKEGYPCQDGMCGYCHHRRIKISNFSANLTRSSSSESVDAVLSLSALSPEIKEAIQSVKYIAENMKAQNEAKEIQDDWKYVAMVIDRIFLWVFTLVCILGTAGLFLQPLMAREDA

[15] = molecular target: Nicotinic acetylcholine receptor alpha2/beta2 (Homo sapiens, UniProt P02708+P17787); assay: Displacement of [3H]-epibatidine from human alpha2beta2 nAChR transfected in HEK293 cells by scintillation counting analysis; assay type: cell-based
Mus musculus [16] = assay: Toxicity in ICR mouse assessed as total movement time at 1 to 3 mg/kg, ip after 15 to 45 mins by locomotor activity assay relative to vehicle-treated control; assay type: organism-based; set-up: route intraperitoneal; conditions: in vivo
[17] = molecular target: Muscarinic acetylcholine receptor M4 (Homo sapiens, UniProt P08173); assay: Binding affinity to human recombinant muscarinic M4 receptor expressed in CHO cells after 90 mins by radioligand displacement assay; assay type: cell-based
[18] = Displacement of [3H]DTG from sigma2 receptor (unknown origin) expressed in rat PC12 cells after 90 mins by scintillation counting analysis; assay type: cell-based, Homo sapiens; conditions: pc-12
[19] = molecular target: 5-hydroxytryptamine receptor 2C (Homo sapiens, UniProt P28335); assay: Displacement of [3H]Mesulergine from human recombinant 5-HT2C receptor expressed in HEK cells after 90 mins by scintillation counting analysis; assay type: cell-based, HEK293
Sequence of 5-hydroxytryptamine receptor 2C (P28335 whole entry): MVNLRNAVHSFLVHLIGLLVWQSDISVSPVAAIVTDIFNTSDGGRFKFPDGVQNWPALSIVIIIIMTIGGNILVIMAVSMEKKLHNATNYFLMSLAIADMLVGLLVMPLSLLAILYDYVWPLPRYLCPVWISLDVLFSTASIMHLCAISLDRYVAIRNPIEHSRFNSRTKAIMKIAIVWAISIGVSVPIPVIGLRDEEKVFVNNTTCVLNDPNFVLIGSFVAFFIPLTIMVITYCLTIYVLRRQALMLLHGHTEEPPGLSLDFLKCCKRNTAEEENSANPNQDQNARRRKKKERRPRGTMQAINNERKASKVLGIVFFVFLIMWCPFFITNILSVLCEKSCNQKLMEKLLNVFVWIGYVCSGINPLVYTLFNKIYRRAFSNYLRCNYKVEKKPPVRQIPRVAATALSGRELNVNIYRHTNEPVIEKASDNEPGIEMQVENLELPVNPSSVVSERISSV

[20] = molecular target: Alpha-2C adrenergic receptor (Homo sapiens, UniProt P18825); assay: Displacement of [3H]Rauwolscine from human recombinant alpha2C-adrenoceptor expressed in MDCK cells after 90 mins by scintillation counting analysis; assay type: cell-based
Sequence of Alpha-2C adrenergic receptor (P18825 whole entry): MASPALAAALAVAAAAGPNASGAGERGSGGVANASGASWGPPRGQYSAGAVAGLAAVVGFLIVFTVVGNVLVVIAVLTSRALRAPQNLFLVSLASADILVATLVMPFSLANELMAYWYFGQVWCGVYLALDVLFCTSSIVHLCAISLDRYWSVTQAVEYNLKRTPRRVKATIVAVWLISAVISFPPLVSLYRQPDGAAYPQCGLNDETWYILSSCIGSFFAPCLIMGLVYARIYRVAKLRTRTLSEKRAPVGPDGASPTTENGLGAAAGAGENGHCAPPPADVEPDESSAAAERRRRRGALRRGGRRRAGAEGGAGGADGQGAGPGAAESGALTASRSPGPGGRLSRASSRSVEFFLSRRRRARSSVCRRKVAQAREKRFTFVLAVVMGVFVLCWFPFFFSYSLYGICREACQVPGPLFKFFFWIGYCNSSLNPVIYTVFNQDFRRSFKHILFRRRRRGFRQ

[21] = molecular target: Alpha-1B adrenergic receptor (Homo sapiens, UniProt P35368); assay: Displacement of [3H]Prazosin from human recombinant alpha1B-adrenoceptor expressed in HEK cells after 90 mins by scintillation counting analysis; assay type: cell-based, HEK293
[22] = molecular target: Sigma non-opioid intracellular receptor 1 (Cavia porcellus, UniProt Q60492); assay: Displacement of [3H]Pentazocine from guinea pig sigma1 receptor after 90 mins by scintillation counting analysis
Sequence of Sigma non-opioid intracellular receptor 1 (Q60492 whole entry): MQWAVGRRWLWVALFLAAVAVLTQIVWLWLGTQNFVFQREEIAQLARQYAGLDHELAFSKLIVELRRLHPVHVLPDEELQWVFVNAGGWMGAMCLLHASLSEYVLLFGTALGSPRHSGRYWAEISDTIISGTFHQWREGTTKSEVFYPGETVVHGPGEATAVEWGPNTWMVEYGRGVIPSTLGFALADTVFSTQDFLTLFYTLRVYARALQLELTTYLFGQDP

[23] = molecular target: T2, 5-hydroxytryptamine receptor 3A (Homo sapiens, UniProt P46098); assay: Displacement of [3H]GR65630 from 5-HT3 receptor (unknown origin) expressed in mouse/rat NG108-15 cells after 30 mins by liquid scintillation counting analysis; assay type: cell-based
T2 sequence (P46098 whole entry): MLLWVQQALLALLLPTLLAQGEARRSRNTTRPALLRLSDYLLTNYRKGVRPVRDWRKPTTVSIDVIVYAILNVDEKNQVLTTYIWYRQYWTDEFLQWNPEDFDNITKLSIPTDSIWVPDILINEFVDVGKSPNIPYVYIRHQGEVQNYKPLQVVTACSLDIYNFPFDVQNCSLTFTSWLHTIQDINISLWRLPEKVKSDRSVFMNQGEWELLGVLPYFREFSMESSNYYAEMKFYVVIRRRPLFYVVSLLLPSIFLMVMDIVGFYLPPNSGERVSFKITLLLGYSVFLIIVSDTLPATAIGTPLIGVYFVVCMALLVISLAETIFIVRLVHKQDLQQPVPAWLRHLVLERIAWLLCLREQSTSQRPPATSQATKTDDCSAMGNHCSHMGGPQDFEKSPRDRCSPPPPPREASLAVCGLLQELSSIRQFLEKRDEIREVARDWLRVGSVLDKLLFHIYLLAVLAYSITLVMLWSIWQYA

Mus musculus [24] = assay: Toxicity in ICR mouse assessed as total movement distance at 1 to 3 mg/kg, ip after 15 to 45 mins by locomotor activity assay relative to vehicle-treated control; assay type: organism-based; set-up: route intraperitoneal; conditions: in vivo

Ki [1]: > 10 µM
Ki [2]: 1.32 µM
logP [3]: 1.86
Ki (D(1B) dopamine receptor): > 10 µM
Ki [4]: > 10 µM
Ki [6]: > 10 µM
Ki [7]: > 10 µM
Ki [8]: 0.08 µM
Ki [9]: > 10 µM
Ki (D(1A) dopamine receptor): > 10 µM
Ki [10]: > 10 µM
Ki [11]: > 10 µM
Ki (D(2) dopamine receptor): > 10 µM
Ki [12]: > 10 µM
Ki [13]: 0.684 µM
Ki [14]: > 10 µM
Ki [15]: > 10 µM
Ki [17]: > 10 µM
Ki [19]: 0.644 µM
Ki [20]: 0.84 µM
Ki [21]: > 10 µM
Ki [22]: 6.15 µM
Ki [23]: 0.034 µM
SMILES: Cl.NC1=Nc2ccc(Cl)cc2CN1
ED50 (Mus musculus [5]): 0.23 mg/kg
Activity (Mus musculus [16]): Non-toxic
Ki [18]: 2.65 µM
pKi [18]: 5.6
Activity (Mus musculus [24]): Non-toxic
